This note sets out measurements from patent publication US20100009017A1, “Anticancer Methods Using Extracts of Anemarrhena asphodeloides Bunge” (BIONOVO, INC., priority 2008, published 2010).

What all share (format): cell-based
For test [1], the system named is BT474 cells. Put plainly: Cell death in BT474 cells (FIG. 5, FIG. 15). Particulars: for induction of cell death: BT474, 24 hr, BN108 0.5 mg/mL, Timosaponin A3 4 μg/mL, Timosaponin B2 50 μg/mL, lamarinase-treated Timosaponin B2 4 μg/mL. As to the method:
FIG. 5. Effect of Timosaponins A3 and B2 on viability of breast cancer (BT474) and normal epithelial cells (MCF10A). Cells were treated with BN108 at 0.5 mg/ml, Timosaponin A3 at 4 μg/ml, or Timosaponin B2 at 50 μg/ml, inactivated lamarinase alone or lamarinase-treated B2 at 4 μg/ml for 24 hours.
FIG. 15. Conversion of Timosaponin B2 to Timosaponin A3 by lamarinase was confirmed by time of flight mass spectrometry (TOF MS). Disappearance of Timosaponin B2 and appearance of Timosaponin A3 results in an increase in cell death from 16% in the presence of inactivated lamarinase and Timosaponin B2 to 53% in the presence of activated lamarinase and Timosaponin B2.
The effect of Timosaponins A3 and B2 on the viability of breast cancer cells and normal epithelial cells was tested by treating cells with either 0.5 mg/mL BN108, 4 μg/mL Timosaponin A3, 50 μg/mL Timosaponin B2, inactivated lamarinase alone or lamarinase-treated Timosaponin B2 (4 μg/mL) for 24 hr. […] The difference in activity between Timosaponin A3 and lamarinase treated Timosaponin B2 is, on a molar basis, probably negligible, given that the quotient of the molecular weights of Timosaponin B2 (920 Da) and Timosaponin A3 (740 Da) is roughly equivalent to the ratio of the % dead cells in the Timosaponin A3 and the lamarinase-treated Timosaponin B2. Thus, it can be inferred that nearly all the Timosaponin B2 is converted into Timosaponin A3, and is active to induced apoptosis, in the presence of lamarinase.

Another test relates to cancer cells. Put plainly: Induction of apoptosis in vitro.
The test system of test [2] is BT474 cells. The experiment in a line: FACScan propidium iodide / Annexin V viability and apoptosis (FIG. 9, table). Particulars: for % Difference from control: control = DMSO; for cells surviving: BT474, 24 hours. As to the method:
FIG. 9. […] BT474 cells were treated for 24 hours, and percent of live cells was analyzed on FACScan based on permeability of dead cells for propidium iodide and binding of Annexin V.
The cytotoxic effects of BN108 and Timosaponin A3 are attenuated by cholesterol (CHL) and the caspase 4 inhibitor LEVD. […] Treatment of BT474 cells with […] cholesterol protected the cells from the effects of Timosaponin A3 and BN108, with about 80% of the cells surviving 24 hours in the presence of cholesterol (CHL).

A further test relates to non-cancerous cells. The experiment in a line: Induction of apoptosis in vitro.
Another test relates to eIF2a. The experiment in a line: Phosphorylation of eIF2a in BT474 cells (FIG. 7). Particulars: Timosaponin A3 5 μM, BN108 0.5 mg/mL. As to the method:
(§1) FIG. 7. Purified Timosaponin A3 and BN108 extract have similar effects on phosphorylation of eIF2a and on activation of SREBP2 as well as expression on SREBP2 target gene IDI1. BT474 cells were treated with TspA3 (5 μM) or BN108 (0.5 mg/ml). Both BN108 and Timosaponin A3 induce the pro-apoptotic gene REDD1 in prostate cancer cells.

Another test concerns REDD1. Put plainly: REDD1 induction in Du145 cells (FIG. 6). Particulars: Du145 prostate cancer cells; BN108 0.5 mg/mL, Timosaponin A3 7.5 μM. Here is the method:
FIG. 6. Pro-apoptotic gene REDD1 is induced in prostate cancer cell line Du145 by treatment with BN108 (0.5 mg/ml) and Timosaponin A3 (7.5 μM). Both BN108 and Timosaponin A3 induce the pro-apoptotic gene REDD1 in prostate cancer cells.

A further test has as its system IDI1. Put plainly: Expression of SREBP2 target gene IDI1 in BT474 cells (FIG. 7). As to conditions: Timosaponin A3 5 μM, BN108 0.5 mg/mL. As to the method: as §1
In the next test the test system is SREBP2. Put plainly: SREBP2 activation in BT474 cells (FIG. 4B, FIG. 7). As to conditions: Timosaponin A3 5 μM, BN108 0.5 mg/mL. Here is the method:
FIG. 4. […] B. SREBP2 is activated by BN108 in both cell lines. Activated AKT was detected using antibody to phosphoserine 473 (Phospho-AKT) that is phosphorylated only in active kinase.
FIG. 7. Purified Timosaponin A3 and BN108 extract have similar effects on phosphorylation of eIF2a and on activation of SREBP2 as well as expression on SREBP2 target gene IDI1. BT474 cells were treated with TspA3 (5 μM) or BN108 (0.5 mg/ml).
In FIG. 4B, it can be seen that SREBP2 is activeated by BN108 in both the cancer cells (BT474) and the non-cancerous cells (MCF10A).
Both BN108 and Timosaponin A3 induce the pro-apoptotic gene REDD1 in prostate cancer cells.

Another test concerns MCF10A cells. Put plainly: Cholesterol content of cell extracts (FIG. 8). Particulars: normal (MCF10A) breast cells, through the first 8 hours after treatment. As to the method:
(§2) FIG. 8. Purified Timosaponin A3 and BN108 extract have similar effects on cholesterol synthesis on breast cancer cells MM23 and normal MCF10A cells. Cells were treated with either BN108 or TspA3 for indicated times, and cell extracts were analyzed for cholesterol content, which was normalized to the protein content.
(§3) BN108 and Timosaponin A3 had similar effects on cholesterol (CHL) synthesis in cancerous and normal cells.

The test system of another test is MM23 breast cancer cells. Put plainly: Cholesterol content of cell extracts (FIG. 8). Particulars: cancerous (MM23) breast cells. Here is the method: as §2, §3

The structures appear in SMILES notation.

Regarding `C[C@@H](CCC1(O)O[C@H]2C[C@H]3[C@@H]4CC[C@@H]5C[C@@H](O[C@@H]6O[C@H](CO)[C@H](O)[C@H](O)[C@H]6O[C@@H]6O[C@H](CO)[C@@H](O)[C@H](O)[C@H]6O)CC[C@]5(C)[C@H]4CC[C@]3(C)[C@H]2[C@@H]1C)CO[C@@H]1O[C@H](CO)[C@@H](O)[C@H](O)[C@H]1O` (stereo partly shown) [Timosaponin B2], in the test on BT474 cells [1], the “induction of cell death” value is recorded as “did not induce cell death”. The cell death with BT474 cells [1] (in the presence of inactivated lamarinase (FIG. 15)) is 16%. Besides, the induction of apoptosis result in the test on cancer cells is “does not induce apoptosis”. Further, in the test on BT474 cells [2], the “% Total apoptotic” value turned out to be 12%, the “% early apoptotic” value is 7%, the “% late apoptotic” value turned out to be 5% and the “% Difference from control” value is 1%.
Regarding `CC1CCC2(OC1)OC1CC3C4CCC5CC(OC6OC(CO)C(O)C(O)C6OC6OC(CO)C(O)C(O)C6O)CC[C@]5(C)C4CC[C@]3(C)[C@H]1[C@@H]2C` (stereo partly shown) [Timosaponin A3], the induction of apoptosis entry in the test on non-cancerous cells is listed as “does not induce apoptosis”. Moreover, the “phosphorylation of eIF2a” value in the test on eIF2a is “increase phosphorylation of elF2a”. In the test on REDD1, the REDD1 gene induction entry is “induced”. The “induction of cell death” value with BT474 cells [1] is recorded as “induced cell death”. The induction of apoptosis entry in the test with cancer cells is reported as “induces of apoptosis”. Further, in the test on IDI1, the “expression of IDI1” value was “increase expression of IDI1”. Also, the “expression of SREBP2” value in the test on SREBP2 is “increase expression of SREBP2”. Also, the cholesterol synthesis result in the test on MCF10A cells was “reduce cholesterol synthesis”. Further, the cholesterol synthesis result in the test on MM23 breast cancer cells was “increase cholesterol synthesis slightly”. In the test on BT474 cells [2], the “% Total apoptotic” value amounted to 68%, the “% early apoptotic” value came to 35%, the “% late apoptotic” value is reported as 33% and the cells surviving came out at 40%. Also, in the test on BT474 cells [2], the “% Difference from control” value turned out to be 57%. For the same molecule, the cells surviving entry in the test on BT474 cells [2] (with 250 mM cholesterol (CHL)) is “about 80%”.
